The source of these data is patent publication US20260042743A1, “SUBSTITUTED BENZIMIDAZOLES FOR TREATING VIRAL DISEASES” (COUNCIL OF SCIENTIFIC AND INDUSTRIAL RESEARCH, priority 2022, published 2026).

This assay deals with SARS-CoV-2. In words: cell-based anti-viral assay using Vero E6 cell line, viral RNA by qRT-PCR. The note with it: Vero E6 cells, 48 h; for ΔCt (1 μM) / inhibition at 1 µM: 1 μM compound; for ΔCt (1 μM) / ΔCt (5 μM): increase in Ct vs no-drug control; for ΔCt (5 μM) / inhibition at 5 µM: 5 μM compound; for inhibition at 1 µM / inhibition at 5 µM: Severe acute respiratory syndrome coronavirus 2, Vero C1008, calculated from ΔCt; for inhibition at 1 µM: read-out: % SARS-CoV-2 Inactivation (1 μM); for inhibition at 5 µM: read-out: % SARS-CoV-2 Inactivation (5 μM).

`FC(F)(F)c1cc(Nc2nc3c(C(F)(F)F)cc(C(F)(F)F)cc3[nH]2)cc(C(F)(F)F)c1` [Example 1, N-(3,5-bis(trifluoromethyl)phenyl)-4,6-bis(trifluoromethyl)-1H-benzo[d]imidazol-2-amine]: the “ΔCt (1 μM)” value is 5.7, the “ΔCt (5 μM)” value came to 12, the inhibition at 1 µM is above 95% and the inhibition at 5 µM was above 99.9%.

For `FC(F)(F)c1cc(C(F)(F)F)c2nc(Nc3ccc(Cl)cc3)[nH]c2c1` [Example 2, N-(4-chlorophenyl)-4,6-bis(trifluoromethyl)-1H-benzo[d]imidazol-2-amine], the “ΔCt (1 μM)” value came out at 4.4, the “ΔCt (5 μM)” value is listed as 6, the inhibition at 1 µM is above 90% and the inhibition at 5 µM was above 95%.

With `FC(F)(F)c1cc(C(F)(F)F)c2nc(Nc3ccccc3)[nH]c2c1` [Example 3, N-phenyl-4,6-bis(trifluoromethyl)-1H-benzo[d]imidazol-2-amine], the “ΔCt (1 μM)” value was 1.8, the “ΔCt (5 μM)” value amounted to 3.3, the inhibition at 1 µM is below 3% and the inhibition at 5 µM is 90%.

As to `COc1ccc(Nc2nc3c(C(F)(F)F)cc(C(F)(F)F)cc3[nH]2)cc1Br` [Example 4, N-(3-bromo-4-methoxyphenyl)-4,6-bis(trifluoromethyl)-1H-benzo[d]imidazol-2-amine], the “ΔCt (1 μM)” value is 2.7, the “ΔCt (5 μM)” value was found to be 6, the inhibition at 1 µM is below 3% and the inhibition at 5 µM was above 95%.

Take `FC(F)(F)c1cc(C(F)(F)F)c2nc(Nc3cccnc3)[nH]c2c1` [Example 5, N-(pyridin-3-yl)-4,6-bis(trifluoromethyl)-1H-benzo[d]imidazol-2-amine]: the “ΔCt (1 μM)” value was 1, the “ΔCt (5 μM)” value amounted to 1.2, the inhibition at 1 µM is below 3% and the inhibition at 5 µM was below 3%.

Take `FC(F)(F)c1cc(C(F)(F)F)c2nc(NCc3ccccc3)[nH]c2c1` [Example 6, N-benzyl-4,6-bis(trifluoromethyl)-1H-benzo[d]imidazol-2-amine]: the “ΔCt (1 μM)” value was found to be 2, the “ΔCt (5 μM)” value is given as 1.6, the inhibition at 1 µM is below 3% and the inhibition at 5 µM is below 3%.

With `FC(F)(F)c1cc(C(F)(F)F)c2nc(NC3CCOCC3)[nH]c2c1` [Example 7, N-(tetrahydro-2H-pyran-4-yl)-4,6-bis(trifluoromethyl)-1H-benzo[d]imidazol-2-amine], the “ΔCt (1 μM)” value was 0.9, the “ΔCt (5 μM)” value is reported as −0.32, the inhibition at 1 µM was below 3% and the inhibition at 5 µM is below 3%.

Regarding `Fc1cc2nc(Nc3ccccc3)[nH]c2cc1F` [Example 8, 5,6-difluoro-N-phenyl-1H-benzo[d]imidazol-2-amine], the “ΔCt (1 μM)” value was 3.1, the “ΔCt (5 μM)” value turned out to be 4.2, the inhibition at 1 µM was 90% and the inhibition at 5 µM was above 90%.

Turning to `COc1ccc(Nc2nc3cc(F)c(F)cc3[nH]2)cc1Br` [Example 9, N-(3-bromo-4-methoxyphenyl)-5,6-difluoro-1H-benzo[d]imidazol-2-amine], the “ΔCt (1 μM)” value is on record as −1.1, the “ΔCt (5 μM)” value stood at 1, the inhibition at 1 µM was below 3% and the inhibition at 5 µM is below 3%.

With `Fc1cc2nc(Nc3cccc(C(F)(F)F)c3)[nH]c2cc1F` [Example 10, 5,6-difluoro-N-(3-(trifluoromethyl)phenyl)-1H-benzo[d]imidazol-2-amine], the “ΔCt (1 μM)” value was found to be 2.4, the “ΔCt (5 μM)” value was determined as 2.4, the inhibition at 1 µM is below 3% and the inhibition at 5 µM is below 3%.

`Fc1cc2nc(Nc3cc(C(F)(F)F)cc(C(F)(F)F)c3)[nH]c2cc1F` [Example 11, N-(3,5-bis(trifluoromethyl)phenyl)-5,6-difluoro-1H-benzo[d]imidazol-2-amine]: the “ΔCt (1 μM)” value was determined as 5.8, the “ΔCt (5 μM)” value stood at 10.3, the inhibition at 1 µM is above 95% and the inhibition at 5 µM was 99.9%.

Regarding `Fc1cc2nc(Nc3ccc(C(F)(F)F)cc3)[nH]c2cc1F` [Example 12, 5,6-difluoro-N-(4-(trifluoromethyl)phenyl)-1H-benzo[d]imidazol-2-amine], the “ΔCt (1 μM)” value worked out at 2.4, the “ΔCt (5 μM)” value came to 3.5, the inhibition at 1 µM was below 3% and the inhibition at 5 µM is 90%.

As to `Fc1cc2nc(NCc3ccccc3)[nH]c2cc1F` [Example 13, N-benzyl-5,6-difluoro-1H-benzo[d]imidazol-2-amine], the “ΔCt (1 μM)” value turned out to be 1.3, the “ΔCt (5 μM)” value is 1, the inhibition at 1 µM was below 3% and the inhibition at 5 µM was below 3%.

For `FC(F)(F)c1cccc(Nc2nc3c(C(F)(F)F)cc(C(F)(F)F)cc3[nH]2)c1` [Example 14, 4,6-bis(trifluoromethyl)-N-(3-(trifluoromethyl)phenyl)-1H-benzo[d]imidazol-2-amine], the “ΔCt (1 μM)” value was found to be 7.4, the “ΔCt (5 μM)” value amounted to 16, the inhibition at 1 µM is 99% and the inhibition at 5 µM was 100%.

As for `CC(C)Nc1nc2c(C(F)(F)F)cc(C(F)(F)F)cc2[nH]1` [Example 15, N-isopropyl-4,6-bis(trifluoromethyl)-1H-benzo[d]imidazol-2-amine], the “ΔCt (1 μM)” value is given as 3.1, the “ΔCt (5 μM)” value amounted to 4.2, the inhibition at 1 µM was 90% and the inhibition at 5 µM is above 90%.

Take `FC(F)(F)c1cc(C(F)(F)F)c2nc(N3CCCCC3)[nH]c2c1` [Example 16, 2-(piperidin-1-yl)-4,6-bis(trifluoromethyl)-1H-benzo[d]imidazole]: the “ΔCt (1 μM)” value was found to be 0.8, the “ΔCt (5 μM)” value came to 1, the inhibition at 1 µM is below 3% and the inhibition at 5 µM is below 3%.

In the case of `FC(F)(F)c1cc(C(F)(F)F)c2nc(Nc3ccc4ccccc4c3)[nH]c2c1` [Example 17, N-(naphthalen-2-yl)-5,7-bis(trifluoromethyl)-1H-benzo[d]imidazol-2-amine], the “ΔCt (1 μM)” value is 3, the “ΔCt (5 μM)” value is recorded as 1.5, the inhibition at 1 µM is 90% and the inhibition at 5 µM is below 3%.

Consider `CC(C)c1ccccc1Nc1nc2c(C(F)(F)F)cc(C(F)(F)F)cc2[nH]1` [Example 18, N-(2-isopropylphenyl)-4,6-bis(trifluoromethyl)-1H-benzo[d]imidazol-2-amine], for which the “ΔCt (1 μM)” value is given as 1.4, the “ΔCt (5 μM)” value is listed as 1.4, the inhibition at 1 µM was below 3% and the inhibition at 5 µM is below 3%.

Regarding `C[C@@H](Nc1nc2c(C(F)(F)F)cc(C(F)(F)F)cc2[nH]1)c1cccc2ccccc12` [Example 19, (R)—N-(1-(naphthalen-1-yl)ethyl)-4,6-bis(trifluoromethyl)-1H-benzo[d]imidazol-2-amine], the “ΔCt (1 μM)” value is recorded as 1.9, the “ΔCt (5 μM)” value was 1.9, the inhibition at 1 µM was below 3% and the inhibition at 5 µM is below 3%.

For `O=S1(=O)CCC(Nc2nc3c(C(F)(F)F)cc(C(F)(F)F)cc3[nH]2)C1` (centres unmarked) [Example 20, 3-((4,6-bis(trifluoromethyl)-1H-benzo[d]imidazol-2-yl)amino)tetrahydrothiophene 1,1-dioxide], the “ΔCt (1 μM)” value was determined as 1.7, the “ΔCt (5 μM)” value is listed as 3.7, the inhibition at 1 µM is below 3% and the inhibition at 5 µM is above 90%.

For the compound `CC1(Nc2nc3c(C(F)(F)F)cc(C(F)(F)F)cc3[nH]2)CCC1` [Example 21, N-(1-methylcyclobutyl)-4,6-bis(trifluoromethyl)-1H-benzo[d]imidazol-2-amine], the “ΔCt (1 μM)” value came out at 3.6, the “ΔCt (5 μM)” value is reported as 9.3, the inhibition at 1 µM was above 90% and the inhibition at 5 µM was above 99%.

Take `FC(F)(F)Oc1cccc(Nc2nc3c(C(F)(F)F)cc(C(F)(F)F)cc3[nH]2)c1` [Example 22, N-(3-(trifluoromethoxy)phenyl)-4,6-bis(trifluoromethyl)-1H-benzo[d]imidazol-2-amine]: the “ΔCt (1 μM)” value is recorded as 3.3, the “ΔCt (5 μM)” value was 7.4, the inhibition at 1 µM is 90% and the inhibition at 5 µM is 99%.

Take `Fc1ccccc1Nc1nc2c(C(F)(F)F)cc(C(F)(F)F)cc2[nH]1` [Example 23, N-(2-fluorophenyl)-4,6-bis(trifluoromethyl)-1H-benzo[d]imidazol-2-amine]: the “ΔCt (1 μM)” value is reported as −0.3, the “ΔCt (5 μM)” value is 5.2, the inhibition at 1 µM was below 3% and the inhibition at 5 µM was above 95%.

As for `Fc1cccc(Nc2nc3c(C(F)(F)F)cc(C(F)(F)F)cc3[nH]2)c1` [Example 24, N-(3-fluorophenyl)-4,6-bis(trifluoromethyl)-1H-benzo[d]imidazol-2-amine], the “ΔCt (1 μM)” value was 0.7, the “ΔCt (5 μM)” value is 4.3, the inhibition at 1 µM is below 3% and the inhibition at 5 µM is above 90%.

Regarding `Fc1ccc(Nc2nc3c(C(F)(F)F)cc(C(F)(F)F)cc3[nH]2)cc1` [Example 25, N-(4-fluorophenyl)-4,6-bis(trifluoromethyl)-1H-benzo[d]imidazol-2-amine], the “ΔCt (1 μM)” value was 2, the “ΔCt (5 μM)” value stood at 3.6, the inhibition at 1 µM was below 3% and the inhibition at 5 µM is 90%.

Turning to `Fc1cc(F)cc(Nc2nc3c(C(F)(F)F)cc(C(F)(F)F)cc3[nH]2)c1` [Example 26, N-(3,5-difluorophenyl)-4,6-bis(trifluoromethyl)-1H-benzo[d]imidazol-2-amine], the “ΔCt (1 μM)” value came out at 3.4, the “ΔCt (5 μM)” value is 9.4, the inhibition at 1 µM is 90% and the inhibition at 5 µM is above 99%.
